Laboratory results as given in BindingDB's records for patent WO2025064535 (Deep Apple Therapeutics, 2025).

Tests used:
[1] = molecular target: T1, Mas-related G-protein coupled receptor member X2 (Homo sapiens, UniProt Q96LB1); assay: MRGPRX2 Activity Assay
T1 sequence (Q96LB1 whole entry): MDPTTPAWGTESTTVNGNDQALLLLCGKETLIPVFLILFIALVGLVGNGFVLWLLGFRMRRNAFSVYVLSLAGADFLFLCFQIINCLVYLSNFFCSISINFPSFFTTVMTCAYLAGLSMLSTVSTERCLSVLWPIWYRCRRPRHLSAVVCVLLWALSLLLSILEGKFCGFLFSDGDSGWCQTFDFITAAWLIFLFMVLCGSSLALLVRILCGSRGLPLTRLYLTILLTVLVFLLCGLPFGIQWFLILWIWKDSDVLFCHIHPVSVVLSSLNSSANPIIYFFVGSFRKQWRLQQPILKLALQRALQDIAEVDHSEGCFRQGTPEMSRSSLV
Description: FlpIn TRex-MRGPRX2-HEK293 cells (herein TRex-MRPGRX2-HEK) stably transfected to express human MRGPRX2 were maintained at 37 °C with 5% CO2 and grown in DMEM supplemented with 10% FBS, 1% L-Glutamate, 1% penicillin/streptomycin, 100ug/mL Hygromycin B, and 15 µg/mL Blasticidin. GOI (MRGPRX2) expression was induced with 100ng/mL of Doxycycline 18-24 hours prior to experiment, in flask. On the day of experiment, cells were lifted with TripLE Express and seeded in 384-well white walled opaque bottomed, assay plates, at 8,000 cells per well in 5 µL freshly made assay buffer (HBSS, 20 mM HEPES, 0.1% BSA and 10 mM LiCl). Compounds solubilized in 100% DMSO at 30 mM were serially diluted (1:4) first in 100% DMSO, and an intermediate plate of assay buffer was used to establish a final top concentration of 30 µM (in assay plate). Final DMSO concentration was kept constant at 1% across assay plates. Cortistatin-14, at 30 mM stock concentration was solubilized in HBSS + 0.1% BSA, stored at -20°C in 5 µL aliquots and discarded after one freeze-thaw cycle. […] Antagonist equilibrium was established with 30 minutes preincubation, followed by no wash, direct addition, and stimulation of agonist for 1 hour at 37 °C / 5% CO2. IP-1 standards and HTRF detection reagents were added according to the IP-one Gq kit protocol purchased from CisBio (part number 62IPAPEJ). The plate was read on an EnVision XCite plate reader. The HTRF ratio was then calculated from raw data (channel1/channel2 ×10,000) and analyzed using either GraphPad Prism or a custom Python script to calculate IC50 using Log[Antagonist] vs. response (4 parameter) nonlinear regression.

[2] = molecular target: T1, Mas-related G-protein coupled receptor member X2; assay: LAD2 Degranulation Assay (Protocol 2)
Description: LAD-2 cells were maintained at 37 °C with 5% CO2 and grown in complete StemPro-34 media supplemented with 1% L-Glutamate, 1% penicillin/streptomycin, and 250 ng/mL human SCF. 18-24 hours prior to experiment, LAD-2 cells were collected and transferred to growth media without SCF. […] For dose-response assays, compounds solubilized in 100% DMSO at 30 mM were serially diluted (1:3) first in 100% DMSO, and 2 intermediate dilutions with assay buffer were used to establish a final top concentration of 3 ^M (in assay plate). […] Final DMSO concentration was kept constant at 0.1% across plates for all assays. Cortistatin-14 at 30 mM stock concentration was solubilized in HBSS + 0.1% BSA, stored at -20°C in 5 ^L aliquots and discarded after one freeze-thaw cycle. Final concentration of agonist used in both dose-response and single point assays was 0.5 ^M, prepared in assay buffer. Antagonist equilibrium was established with 2 h preincubation, followed by no wash, direct addition, and stimulation of agonist for 30 minutes at 37 °C. For detection of ^-hexosaminidase activity, assay plates were centrifuged and 5 ^L of cell-free supernatant from each assay well was transferred to a black-walled black-bottomed 384-well plate. Substrate solution (1 mM 4-Methylumbelliferyl N-acetyl-β-D-glucosaminide in citrate buffer, pH=4.5, 15 ^l) was added to each well and plates were incubated for 1 hour at 37 °C. […] Background-subtracted data was analyzed using either GraphPad Prism or a custom Python script to calculate IC50 using either Log[Antagonist] vs. response (4 parameter) nonlinear regression (dose-response assays).

[3] = molecular target: T1, Mas-related G-protein coupled receptor member X2; assay: LAD2 Degranulation Assay (Protocol 1)
Description: LAD-2 cells were maintained at 37 °C with 5% CO2 and grown in complete StemPro-34 media supplemented with 1% L-Glutamate, 1% penicillin/streptomycin, and 250 ng/mL human SCF. On the day of experiment, cells were collected by centrifugation and seeded in 384-well assay plates, at 4,000 cells per well in 10 ^l freshly made assay buffer (10 mM HEPES, 130 mM NaCl, 5 mM KCl, 1.8 mM CaCl2, 1.0 mM MgCl2, 5.6 mM glucose, 0.1% BSA, pH = 7.40). For dose-response assays, compounds solubilized in 100% DMSO at 30 mM were serially diluted (1:3) first in 100% DMSO, and 2 intermediate dilutions with assay buffer were used to establish a final top concentration of 3 ^M (in assay plate). Final DMSO concentration was kept constant at 0.1% across plates for all assays. Cortistatin-14 at 30 mM stock concentration was solubilized in HBSS + 0.1% BSA, stored at -20°C in 5 ^L aliquots and discarded after one freeze-thaw cycle. Final concentration of agonist used in both dose-response and single point assays was 1 ^M, prepared in assay buffer. Antagonist equilibrium was established with 30 minute preincubation, followed by no wash, direct addition, and stimulation of agonist for 30 minutes at 37 °C. For detection of ^-hexosaminidase activity, assay plates were centrifuged and 5 ^l of cell-free supernatant from each assay well was transferred to a black-walled black-bottomed 384-well plate. Substrate solution (1 mM 4-Methylumbelliferyl N-acetyl-β-D-glucosaminide in citrate buffer, pH=4.5, 15 ^l) was added to each well and plates were incubated for 1 hour at 37 °C. […] Background-subtracted data was analyzed using either GraphPad Prism or a custom Python script to calculate IC50 using either Log[Antagonist] vs. response (4 parameter) nonlinear regression (dose-response assays).

IC50 [1] [µM]	IC50 [2] [µM]	IC50 [3] [µM]	SMILES
1.94	–	> 3	C[C@@H](C(=O)Nc1nc2cc3c(cc2s1)OC(F)(F)O3)N1CCC(F)(F)[C@@H](c2c[nH]c(=O)c(CO)c2)C1 [WO2025064535, Compound 88]
0.087	–	0.346	CNCc1cc([C@@H]2CN([C@@H](C)C(=O)Nc3nc4cc5c(cc4s3)OC(F)(F)O5)CCC2(F)F)cc[n+]1[O-] [WO2025064535, Compound 102]
> 17.3	–	> 3	C[C@@H](C(=O)Nc1nc2cc3c(cc2s1)OC(F)(F)O3)N1CCC(F)(F)[C@@H](c2c[nH]c(=O)c(CO)n2)C1 [WO2025064535, Compound 90]
0.036	0.068	0.233	C[C@@H](C(=O)Nc1nc2cc3c(cc2s1)OC(F)(F)O3)N1CCC(F)(F)[C@H](c2c[nH]c(=O)c(CO)n2)C1 [WO2025064535, Compound 91]
0.049	0.101	0.586	C[C@@H](C(=O)Nc1nc2cc3c(cc2s1)CCC3)N1CCC(F)(F)[C@H](c2c[nH]c(=O)c(CO)c2)C1 [WO2025064535, Compound 107]
0.03	0.066	0.215	C[C@@H](C(=O)Nc1nc2cc3c(cc2s1)OC(F)(F)O3)N1CCC(F)(F)[C@H](c2c[nH]c(=O)c(CO)c2)C1 [WO2025064535, Compound 89]

More lines, now with the values behind:

SMILES	IC50 [1] [µM]	IC50 [2] [µM]	IC50 [3] [µM]
C[C@@H](C(=O)Nc1nc2cc3c(cc2s1)OC(F)(F)O3)N1CCC(F)(F)[C@H](c2ccc(=O)[nH]c2)C1 [WO2025064535, Compound 32]	0.015	0.027	–
C[C@@H](C(=O)Nc1nc2cc3c(cc2s1)OC(F)(F)O3)N1CCC(F)(F)[C@H](c2cc[n+]([O-])c([C@H](O)CO)c2)C1 [WO2025064535, Compound 54]	0.0078	0.0066	–
C[C@@H](C(=O)Nc1nc2cc3c(cc2s1)OCCO3)N1CCC(F)(F)[C@H](c2c[nH]c(=O)cn2)C1 [WO2025064535, Compound 41]	0.0059	0.023	–
C[C@@H](C(=O)Nc1nc2cc3c(cc2s1)OC(F)(F)O3)N1CCC(F)(F)[C@H](c2c[nH]c(=O)c([C@@H](O)CO)c2)C1 [WO2025064535, Compound 43]	0.011	0.0074	–
CNCc1cc([C@@H]2CN([C@@H](C)C(=O)Nc3nc4cc5c(cc4s3)OC(F)(F)O5)CCC2(F)F)c[nH]c1=O [WO2025064535, Compound 87]	0.041	–	0.223
C[C@@H](C(=O)Nc1nc2cc3c(cc2s1)OC(F)(F)O3)N1CCC(F)(F)[C@H](c2c[nH]c(=O)c(CN)c2)C1 [WO2025064535, Compound 85]	0.036	0.082	0.13
C[C@@H](C(=O)Nc1nc2cc3c(cc2s1)OCCO3)N1CCC(F)(F)[C@@H](c2ccc(=O)[nH]c2)C1 [WO2025064535, Compound 29]	0.0086	0.02	–
C[C@@H](C(=O)Nc1nc2cc3c(cc2s1)OC(F)(F)O3)N1CC[C@H](F)[C@@H](c2cc[n+]([O-])cc2)C1 [WO2025064535, Compound 38]	0.032	0.072	–
C[C@@H](C(=O)Nc1nc2cc3c(cc2s1)CCC3)N1CCC(F)(F)[C@H](c2ccc(=O)[nH]c2)C1 [WO2025064535, Compound 28]	0.018	0.144	–
C[C@@H](C(=O)Nc1nc2cc3c(cc2s1)OC(F)(F)O3)N1CCC(F)(F)[C@@H](c2c[nH]c(=O)cn2)C1 [WO2025064535, Compound 34]	0.014	0.052	–
C[C@@H](C(=O)Nc1nc2cc3c(cc2s1)OC(F)(F)O3)N1CCC[C@@H](c2cc[n+]([O-])cc2)C1 [WO2025064535, Compound 49]	> 30	> 3	–
C[C@H](C(=O)Nc1nc2cc3c(cc2s1)OCO3)N1CCC(F)(F)[C@@H](c2cc[n+]([O-])cc2)C1 [WO2025064535, Compound 81]	0.0037	–	0.012
CNCc1cc([C@H]2CN([C@@H](C)C(=O)Nc3nc4cc5c(cc4s3)OC(F)(F)O5)CCC2(F)F)c[nH]c1=O [WO2025064535, Compound 86]	> 30	–	> 3
